Measurements taken from patent publication US12157746B2, “Tetrahydro-1H-pyrazino[2,1-a]isoindolylquinoline compounds for the treatment of autoimmune disease” (F. HOFFMANN-LA ROCHE AG, priority 2018, dated 2024).

molecular target: T1, human TLR9 (Homo sapiens, UniProt Q9NR96); experiment: HEK293-Blue-hTLR-9 cells assay; assay type: cell-based; details: HEK293-Blue-hTLR9 cells, ODN2006 stimulation, 20 hrs, SEAP reporter; read-out: HEK/hTLR9 IC50
T1 sequence (Q9NR96 26-1032): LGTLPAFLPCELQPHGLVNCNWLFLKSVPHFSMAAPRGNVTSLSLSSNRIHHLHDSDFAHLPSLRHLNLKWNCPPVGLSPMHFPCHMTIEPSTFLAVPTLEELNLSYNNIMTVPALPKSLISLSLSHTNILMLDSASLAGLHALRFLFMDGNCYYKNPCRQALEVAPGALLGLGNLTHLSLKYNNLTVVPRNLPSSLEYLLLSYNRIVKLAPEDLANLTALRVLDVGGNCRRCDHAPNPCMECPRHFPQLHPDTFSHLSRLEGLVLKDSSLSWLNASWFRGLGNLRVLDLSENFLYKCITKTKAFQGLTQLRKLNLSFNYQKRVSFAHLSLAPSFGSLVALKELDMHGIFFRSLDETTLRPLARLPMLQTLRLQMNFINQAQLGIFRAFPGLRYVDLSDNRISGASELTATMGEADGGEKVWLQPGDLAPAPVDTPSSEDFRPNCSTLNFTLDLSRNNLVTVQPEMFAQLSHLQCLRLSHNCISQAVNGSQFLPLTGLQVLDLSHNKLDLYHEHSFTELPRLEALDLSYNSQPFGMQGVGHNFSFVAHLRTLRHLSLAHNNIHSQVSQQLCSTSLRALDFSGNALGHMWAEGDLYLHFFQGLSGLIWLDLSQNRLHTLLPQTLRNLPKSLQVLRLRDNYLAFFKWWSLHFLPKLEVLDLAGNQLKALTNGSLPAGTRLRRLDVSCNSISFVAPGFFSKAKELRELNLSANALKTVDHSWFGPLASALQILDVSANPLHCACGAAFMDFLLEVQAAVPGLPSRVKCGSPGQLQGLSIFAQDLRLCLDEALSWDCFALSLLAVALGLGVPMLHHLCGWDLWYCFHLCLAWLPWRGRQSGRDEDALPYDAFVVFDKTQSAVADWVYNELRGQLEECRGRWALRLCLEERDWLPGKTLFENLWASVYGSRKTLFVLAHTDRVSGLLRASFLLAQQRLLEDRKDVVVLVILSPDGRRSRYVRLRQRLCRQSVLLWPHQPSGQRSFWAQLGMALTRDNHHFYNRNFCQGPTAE
Summary of the method: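 Antagonist mode in HEK293-Blue hTLR9 reporter cells (SEAP under NF-κB/AP-1 sites), stimulated with ODN2006 added from a 20 uM solution. Serially diluted compound (1% DMSO final) was incubated 20 hrs at 37° C. Supernatant SEAP was developed with QUANTI-Blue for 2 h at 37° C and read at 620˜655 nm.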

Row | Structure (SMILES) | IC50 [nM]
1 | N#Cc1ccc(N2CCN3Cc4cc(N5CCNCC5)ccc4C3C2)c2cccnc12 (centres unmarked) [Example 3, 5-(8-piperazin-1-yl-3,4,6,10b-tetrahydro-1H-pyrazino[2,1-a]isoindol-2-yl)quinoline-8-carbonitrile] | 87.7
2 | C[C@@H]1CN(c2ccc(C#N)c3ncccc23)C[C@@H]2c3ccc(NCCN4CC[C@H](O)C4)cc3CN12 [Example 68, 5-[(4R,10bS)-8-[2-[(3S)-3-hydroxypyrrolidin-1-yl]ethylamino]-4-methyl-3,4,6,10b-tetrahydro-1H-pyrazino[2,1-a]isoindol-2-yl]quinoline-8-carbonitrile] | 73.5
3 | C[C@@H]1CN(c2ccc(C#N)c3ncccc23)C[C@@H]2c3cc(F)c(N4CC5(CNC5)C4)cc3CN12 [Example 84, 5-[(4R,10bS)-8-(2,6-diazaspiro[3.3]heptan-2-yl)-9-fluoro-4-methyl-3,4,6,10b-tetrahydro-1H-pyrazino[2,1-a]isoindol-2-yl]quinoline-8-carbonitrile] | 186
4 | C[C@@H]1CN(c2ccc(C#N)c3ncccc23)C[C@@H]2c3ccc(N[C@@H]4CNCCOC4)cc3CN12 [Example 56A, 5-[(4R,10bS)-4-methyl-8-[[(6R)-1,4-oxazepan-6-yl]amino]-3,4,6,10b-tetrahydro-1H-pyrazino[2,1-a]isoindol-2-yl]quinoline-8-carbonitrile] | 83
5 | C[C@@H]1CN(c2ccc(C#N)c3ncsc23)C[C@@H]2c3ccc(N[C@H]4CNC[C@H]4F)cc3CN12 [Example 78, 7-[(4R,10bS)-8-[[(3S,4R)-4-fluoropyrrolidin-3-yl]amino]-4-methyl-3,4,6,10b-tetrahydro-1H-pyrazino[2,1-a]isoindol-2-yl]-1,3-benzothiazole-4-carbonitrile] | 83.6
6 | C[C@@H]1CN(c2ccc(C#N)c3ncccc23)C[C@@H]2c3ccc(N4C[C@@H]5CNCCN5C4=O)cc3CN12 [Example 71, 5-[(4R,10bS)-8-[(8aS)-3-oxo-1,5,6,7,8,8a-hexahydroimidazo[1,5-a]pyrazin-2-yl]-4-methyl-3,4,6,10b-tetrahydro-1H-pyrazino[2,1-a]isoindol-2-yl]quinoline-8-carbonitrile] | 115
7 | C[C@@H]1CN(c2ccc(C#N)c3ncccc23)C[C@@H]2c3cccc(N[C@H]4CNC[C@H]4F)c3CN12 [Example 81, 5-[(4R,10bS)-7-[[(3S,4R)-4-fluoropyrrolidin-3-yl]amino]-4-methyl-3,4,6,10b-tetrahydro-1H-pyrazino[2,1-a]isoindol-2-yl]quinoline-8-carbonitrile] | 126
8 | C[C@@H]1CN(c2ccc(Cl)c3ncccc23)C[C@@H]2c3ccc(N[C@H]4CNC[C@H]4F)cc3CN12 [Example 79, (4R,10b)-2-(8-chloro-5-quinolyl)-N-[(3S,4R)-4-fluoropyrrolidin-3-yl]-4-methyl-3,4,6,10b-tetrahydro-1H-pyrazino[2,1-a]isoindol-8-amine] | 113
9 | CO[C@H]1CNC[C@@H]1N(C)c1ccc2c(c1)CN1[C@H](C)CN(c3ccc(C#N)c4ncccc34)C[C@H]21 [Example 64, 5-[(4R,10bS)-8-[[(3S,4S)-4-methoxypyrrolidin-3-yl]-methyl-amino]-4-methyl-3,4,6,10b-tetrahydro-1H-pyrazino[2,1-a]isoindol-2-yl]quinoline-8-carbonitrile] | 125
10 | C[C@@H]1CN(c2ccc(C#N)c3ncccc23)C[C@@H]2c3ccc(NC[C@H]4CNCCO4)cc3CN12 [Example 59, 5-[(4R,10bS)-4-methyl-8-[[(2R)-morpholin-2-yl]methylamino]-3,4,6,10b-tetrahydro-1H-pyrazino[2,1-a]isoindol-2-yl]quinoline-8-carbonitrile] | 73.5
11 | C[C@@H]1CN(c2ccc(C#N)c3ncccc23)C[C@@H]2c3ccc(C(=O)N4CCC(C)(N)CC4)cc3CN12 [Example 88, 5-[(4R,10bS)-8-(4-amino-4-methyl-piperidine-1-carbonyl)-4-methyl-3,4,6,10b-tetrahydro-1H-pyrazino[2,1-a]isoindol-2-yl]quinoline-8-carbonitrile] | 165
12 | CO[C@@H]1CNC[C@H]1Nc1cc2c(cc1C)[C@H]1CN(c3ccc(C#N)c4ncccc34)C[C@@H](C)N1C2 [Example 63, 5-[(4R,10bS)-8-[[(3R,4R)-4-methoxypyrrolidin-3-yl]amino]-4,9-dimethyl-3,4,6,10b-tetrahydro-1H-pyrazino[2,1-a]isoindol-2-yl]quinoline-8-carbonitrile] | 72.7
13 | C[C@@H]1CN(c2ccc(C#N)c3ncccc23)C[C@@H]2c3ccc(N[C@H]4CNCCOC4)cc3CN12 [Example 56B, 5-[(4R,10bS)-4-methyl-8-[[(6S)-1,4-oxazepan-6-yl]amino]-3,4,6,10b-tetrahydro-1H-pyrazino[2,1-a]isoindol-2-yl]quinoline-8-carbonitrile] | 92.1
14 | C[C@@H]1CN(c2ccc(C#N)c3ncccc23)C[C@@H]2c3ccc(N4C[C@H]5CNCCN5C4=O)cc3CN12 [Example 72, 5-[(4R,10bS)-8-[(8aR)-3-oxo-1,5,6,7,8,8a-hexahydroimidazo[1,5-a]pyrazin-2-yl]-4-methyl-3,4,6,10b-tetrahydro-1H-pyrazino[2,1-a]isoindol-2-yl]quinoline-8-carbonitrile] | 108
15 | C[C@@H]1CN(c2ccc(C#N)c3ncccc23)C[C@@H]2c3ccc(N[C@@H]4CCCNC4)cc3CN12 [Example 65, 5-[(4R,10bS)-4-methyl-8-[[(3R)-3-piperidyl]amino]-3,4,6,10b-tetrahydro-1H-pyrazino[2,1-a]isoindol-2-yl]quinoline-8-carbonitrile] | 95.8
16 | C[C@@H]1CN(c2ccc(C#N)c3ncccc23)C[C@@H]2c3cc(F)c(N4C[C@H](N)[C@@](C)(O)C4)cc3CN12 [Example 83, 5-[(4R,10bS)-8-[(3S,4S)-4-amino-3-hydroxy-3-methyl-pyrrolidin-1-yl]-9-fluoro-4-methyl-3,4,6,10b-tetrahydro-1H-pyrazino[2,1-a]isoindol-2-yl]quinoline-8-carbonitrile] | 168
17 | CO[C@H]1CNC[C@H]1Nc1ccc2c(c1)CN1[C@H](C)CN(c3ccc(C#N)c4ncccc34)C[C@H]21 [Example 61, 5-[(4R,10bS)-8-[[(3R,4S)-4-methoxypyrrolidin-3-yl]amino]-4-methyl-3,4,6,10b-tetrahydro-1H-pyrazino[2,1-a]isoindol-2-yl]quinoline-8-carbonitrile] | 93
18 | C[C@@H]1CN(c2ccc(C#N)c3ncccc23)C[C@@H]2c3ccc(NCC4COCCN4)cc3CN12 (stereo partly drawn) [Example 57, 5-[(4R,10bS)-4-methyl-8-(morpholin-3-ylmethylamino)-3,4,6,10b-tetrahydro-1H-pyrazino[2,1-a]isoindol-2-yl]quinoline-8-carbonitrile] | 105
19 | C[C@@H]1CN(c2ccc(C#N)c3ncccc23)C[C@@H]2c3ccc(OC[C@@H]4C[C@H](F)CN4)cc3CN12 [Example 74, 5-[(4R,10bS)-8-[[(2S,4S)-4-fluoropyrrolidin-2-yl]methoxy]-4-methyl-3,4,6,10b-tetrahydro-1H-pyrazino[2,1-a]isoindol-2-yl]quinoline-8-carbonitrile] | 136
20 | C[C@@H]1CN(c2ccc(C#N)c3ncccc23)C[C@@H]2c3ccc(NC[C@@H]4CNCCO4)cc3CN12 [Example 58, 5-[(4R,10bS)-4-methyl-8-[[(2S)-morpholin-2-yl]methylamino]-3,4,6,10b-tetrahydro-1H-pyrazino[2,1-a]isoindol-2-yl]quinoline-8-carbonitrile] | 84.3
21 | Cc1ccc(N2C[C@@H](C)N3Cc4cc(N[C@H]5CNC[C@H]5F)ccc4[C@H]3C2)c2nccnc12 [Example 76, (4R,10bS)—N-[(3S,4R)-4-fluoropyrrolidin-3-yl]-4-methyl-2-(8-methylquinoxalin-5-yl)-3,4,6,10b-tetrahydro-1H-pyrazino[2,1-a]isoindol-8-amine] | 150
22 | C[C@@H]1CN(c2ccc(C#N)c3ncccc23)C[C@@H]2c3cc(F)c(N4CC5CNCC(C4)O5)cc3CN12 [Example 85, 5-[(4R,10bS)-9-fluoro-4-methyl-8-(9-oxa-3,7-diazabicyclo[3.3.1]nonan-3-yl)-3,4,6,10b-tetrahydro-1H-pyrazino[2,1-a]isoindol-2-yl]quinoline-8-carbonitrile] | 151
23 | C[C@@H]1CN(c2ccc(C#N)c3ncccc23)C[C@@H]2c3ccc(N4CCNCC4)cc3CN12 [Example 1, 5-[(4R,10bS)-4-methyl-8-piperazin-1-yl-3,4,6,10b-tetrahydro-1H-pyrazino[2,1-a]isoindol-2-yl]quinoline-8-carbonitrile] | 106
